Experimental data reported in ChEMBL document CHEMBL4043148, “Nitro-substituted tetrahydroindolizines and homologs: Design, kinetics, and mechanism of α-glucosidase inhibition” (Bioorg Med Chem Lett, 2017).
Calls of active or inactive are those of the source. No cut-off for these calls is given here.

Experiments:
[1] = Inhibition of Saccharomyces cerevisiae alpha-glucosidase using 4-nitrophenyl alpha-D-glucopyranoside as substrate preincubated for 5 mins followed by substrate addition measured after 10 mins
Saccharomyces cerevisiae [2] = experiment: Inhibition of Saccharomyces cerevisiae alpha-glucosidase using 4-nitrophenyl alpha-D-glucopyranoside as substrate at 150 uM preincubated for 5 mins followed by substrate addition measured after 10 mins
Saccharomyces cerevisiae [3] = experiment: Mixed inhibition of Saccharomyces cerevisiae alpha-glucosidase assessed as free-enzyme inhibition constant up to 12.5 uM using 4-nitrophenyl alpha-D-glucopyranoside as substrate after 2 mins by Lineweaver-Burk plot analysis
Saccharomyces cerevisiae [4] = experiment: Mixed inhibition of Saccharomyces cerevisiae alpha-glucosidase assessed as Km for substrate up to 10 uM in presence of varying concentrations of 4-nitrophenyl alpha-D-glucopyranoside after 2 mins by Lineweaver-Burk plot analysis (reference value: 0.092 mM)
Saccharomyces cerevisiae [5] = experiment: Mixed inhibition of Saccharomyces cerevisiae alpha-glucosidase assessed as Vmax for substrate up to 10 uM in presence of varying concentrations of 4-nitrophenyl alpha-D-glucopyranoside after 2 mins by Lineweaver-Burk plot analysis (reference value: 23.8 nmol/min/ml)
Saccharomyces cerevisiae [6] = experiment: Potency index, ratio of 1-deoxynojirimycin IC50 to compound IC50 for Saccharomyces cerevisiae alpha-glucosidase
[7] = Mixed inhibition of Saccharomyces cerevisiae alpha-glucosidase assessed as enzyme inhibitor substrate constant up to 12.5 uM using 4-nitrophenyl alpha-D-glucopyranoside as substrate after 2 mins by Lineweaver-Burk plot analysis
Saccharomyces cerevisiae [8] = experiment: Reversible inhibition of Saccharomyces cerevisiae alpha-glucosidase up to 15 uM using 4-nitrophenyl alpha-D-glucopyranoside as substrate after 2 mins by Lineweaver-Burk plot analysis
Saccharomyces cerevisiae [9] = experiment: Inhibition of Saccharomyces cerevisiae alpha-glucosidase using 4-nitrophenyl alpha-D-glucopyranoside as substrate at 300 uM preincubated for 5 mins followed by substrate addition measured after 10 mins

IC50 [1] [µM]	SMILES	further results
48	COC(=O)C(c1c([N+](=O)[O-])cn2c1CCC2)S(C)(=O)=O (stereo not drawn)	–
203	OC[C@H]1NC[C@H](O)[C@@H](O)[C@@H]1O [DUVOGLUSTAT]	–
65	COC(=O)C(c1c([N+](=O)[O-])cn2c1CCCC2)S(=O)(=O)Cc1ccc(C)cc1 (stereo not drawn)	–
8	COC(=O)C(c1c([N+](=O)[O-])cn2c1CCCC2)S(C)(=O)=O (stereo not drawn)	fKi (Saccharomyces cerevisiae [3]): 3.6 µM; Km (Saccharomyces cerevisiae [4]): 140 µM; Vmax (Saccharomyces cerevisiae [5]): 10.7 nmol/min/mL; Ratio IC50 (Saccharomyces cerevisiae [6]): 25; Ki [7]: 7.6 µM; inhibition (Saccharomyces cerevisiae [8]): Active
19.8	COC(=O)C(c1c([N+](=O)[O-])cn2c1CCCC2)S(=O)(=O)Cc1ccccc1 (stereo not drawn)	–

The remaining lines, values behind:

SMILES	IC50 [1] [µM]	further results
CS(=O)(=O)Cc1c([N+](=O)[O-])cn2c1CCC2	> 150	inhibition (Saccharomyces cerevisiae [2]): 46%
CS(=O)(=O)Cc1c([N+](=O)[O-])cn2c1CCCC2	72	–
O=[N+]([O-])c1cn2c(c1CS(=O)(=O)Cc1ccccc1)CCCC2	29	–
CS(=O)(=O)Cc1c([N+](=O)[O-])cn2c1CCCCC2	> 300	inhibition (Saccharomyces cerevisiae [9]): inactive
COC(=O)C(c1c([N+](=O)[O-])cn2c1CCCCC2)S(C)(=O)=O (stereo not drawn)	124	–
